Assay results from ChEMBL document CHEMBL3045738, “Control of Greenhouse Whitefly (Trialeurodes vaporariorum) Using Visually Attractive Targets Impregnated with Pyriproxyfen” (J Pestic Sci, 2005).
Activity calls are given as the source filed them. No cut-off for these calls is given here.

How the values were obtained:
[1] = system: Trialeurodes vaporariorum; assay: Insecticidal activity against Trialeurodes vaporariorum in ten-leaf stage of bean plant after 10 to 35 days; format: functional, organism-based
[2] = system: Trialeurodes vaporariorum; assay: Insecticidal activity against Trialeurodes vaporariorum in bean plant leaf up to 50 days by glasshouse method; format: functional, organism-based

Structure (SMILES): CC(COc1ccc(Oc2ccccc2)cc1)Oc1ccccn1 (racemic)
- Activity [1]: Active
- Activity [2]: Active
